# Patent US7101885B2, “Piperazinyl-aryloxy and piperazinyl-heteroaryloxy-n-aryl lactams” (Pfizer Inc, priority 2003, dated 2006)
# Where a name gives a salt, the structure may show the parent alone.
row,SMILES,melting point [°C]
1,"CN1CCN(c2ccccc2OC2CCCN(c3ccc(N4CCCC4=O)cc3)C2=O)CC1 (stereo not drawn) [Example 5, 3-[2-(4-Methyl-piperazin-1-yl)-phenoxy]-1-[4-(2-oxo-pyrrolidin-1-yl)-phenyl]-piperidin-2-one]",68 to 75
2,"CN1CCN(c2ncccc2OC2CCN(c3ccc(-c4ccon4)cc3)C2=O)CC1 (stereo not drawn) (as salt: salt) [Example 21, 1-[4-(3-Isoxazolyl)-phenyl]-3-[2-(4-methyl-piperazin-1-yl)-pyridin-3-yloxy]-pyrrolidin-2-one]",220
3,"CN1CCN(c2ncccc2OC2CCN(c3ccc(C(C)(C)C)cc3)C2=O)CC1 (stereo not drawn) (as salt: salt) [Example 9, 1-(4-tert-Butyl-phenyl)-3-[2-(4-methyl-piperazin-1-yl)-pyridin-3-yloxy]-pyrrolidin-2-one]",131 to 164
4,"CN1CCN(c2ncccc2OC2CCN(c3ccc(OC(F)(F)F)cc3)C2=O)CC1 (stereo not drawn) (as salt: salt) [Example 16, 1-[4-(Trifluoromethoxy)-phenyl]-3-[2-(4-methyl-piperazin-1-yl)-pyridin-3-yloxy]-pyrrolidin-2-one]",113 to 140
5,"CN1CCN(c2ccccc2OC2CCCN(c3ccc(N4CCOC4=O)cc3)C2=O)CC1 (stereo not drawn) [Example 6, 3-[2-(4-Methyl-piperazin-1-yl)-phenoxy]-1-[4-(2-oxo-oxazolidin-3-yl)-phenyl]-piperidin-2-one]",71 to 88
6,"CN1CCN(c2ccccc2OC2CCCN(c3ccc(C(F)(F)F)cc3)C2=O)CC1 (stereo not drawn) [Example 7, 3-[2-(4-Methyl-piperazin-1-yl)-phenoxy]-1-(4-trifluoromethyl-phenyl)-piperidin-2-one]",81 to 110

# More lines, now with the values ahead:
row,melting point [°C],SMILES
1,164 to 180,"CN1CCN(c2ccccc2OC2CCN(c3ccc(N4CCCC4=O)cc3)C2=O)CC1 (stereo not drawn) [Example 3, 3-[2-(4-Methyl-piperazin-1-yl)-phenoxy]-1-(4-(2-oxo-pyrrolidin-1-yl)-phenyl)-pyrrolidin-2-one]"
2,137 to 162,CN1CCN(c2ccccc2OC2CCN(c3ccc(C(F)(F)F)cc3)C2=O)CC1.Cl (stereo not drawn)
3,72 to 82,"CN1CCN(c2ncccc2OC2CCN(c3ccc(Br)cc3)C2=O)CC1 (stereo not drawn) (as salt: hydrochloride) [Example 8, 1-(4-Bromo-phenyl)-3-[2-(4-methyl-piperazin-1-yl)-pyridin-3-yloxy]-pyrrolidin-2-one]"
4,111 to 149,"CN1CCN(c2ncccc2OC2CCN(c3ccc(N4CCCCC4=O)cc3)C2=O)CC1 (stereo not drawn) [Example 11, 1-(4-{3-[2-(4-Methyl-piperazin-1-yl)-pyridin-3-yloxy]-2-oxo-pyrrolidin-1-yl}-phenyl)-piperidin-2-one]"
5,219 to 248,"CN1CCN(c2ncccc2OC2CCN(c3ccc(C4CCOCC4)cc3)C2=O)CC1 (stereo not drawn) (as salt: salt) [Example 17, 3-[2-(4-Methyl-piperazin-1-yl)-pyridin-3-yloxy]-1-[4-(tetrahydro-pyran-4-yl)-phenyl]-pyrrolidin-2-one]"
6,93 to 120,"CC(C)Oc1ccc(N2CCC(Oc3cccnc3N3CCN(C)CC3)C2=O)cc1 (stereo not drawn) (as salt: salt) [Example 15, 1-[4-(Isopropoxy)-phenyl]-3-[2-(4-methyl-piperazin-1-yl)-pyridin-3-yloxy]-pyrrolidin-2-one]"
